Each structure is given as a SMILES string. Like-named read-outs stand apart in the source and are kept apart here.

One may read the EC50 as the concentration giving half of the maximal effect. As usually defined, the IC50 is the concentration that inhibits the measured activity by half.

Data set [1] concerns SARS-CoV-2. Conditions: cited from earlier work; for EC50: read-out: EC50 in Vero cells.
The subject of data set [2] is SARS-CoV-2 (isolate USA WA1/2020). The data set is described as follows: microbe, parasite or virus in culture. It counts as cell-based. Conditions: Severe acute respiratory syndrome coronavirus 2, Calu-3, 48 h, read-out: IC50 (infection).
A short description of data set [3]: in vitro. Particulars: human.
Data set [4] deals with Calu-3 cells.
Data set [5] addresses SARS-Cov-2 PL^pro (Severe acute respiratory syndrome coronavirus 2, UniProt P0DTD1). The data set is described as follows: biochemical.
Data set [6] has as its system SARS-CoV-2. Particulars: cited from earlier work.
Data set [7] has as its target SARS-Cov-2 M^pro (Severe acute respiratory syndrome coronavirus 2, UniProt P0DTD1). Put plainly: biochemical.
Data set [8] relates to SARS-CoV-2. Particulars: Vero cells, cited from earlier work.
Data set [9] deals with SARS-CoV-2. Particulars: read-out: A549-ACE2 IC50; A549-ACE2 cells; cited from earlier work.
The subject of data set [10] is PL^pro. Conditions: read-out: PL^pro IC50; cited from earlier work.

Consider `CC(C)(C)NC(=O)N[C@H](C(=O)N1C[C@H]2[C@@H]([C@H]1C(=O)NC(CC1CCC1)C(=O)C(N)=O)C2(C)C)C(C)(C)C` (some centres unmarked) [boceprevir], for which the EC50 in data set [1] was 1.31 µM.
In the case of `OCCN(CCO)c1nc(N2CCCCC2)c2nc(N(CCO)CCO)nc(N3CCCCC3)c2n1` [dipyridamole], the EC50 in data set [1] is roughly 0.1 µM.
As to `C[C@@H](Oc1cc(-c2cnn(C3CCNCC3)c2)cnc1N)c1c(Cl)ccc(F)c1Cl` [crizotinib], the figures for the IC50 in [2] and in data set [5] were 16.3 µM and 3.81 ± 0.04 µM, respectively. The same compound had a CC50 in [3] of 5.09 µM. Moreover, the “cell toxicity in Calu-3 cells (in words)” value in data set [4] is listed as “demonstrated cell toxicity”.
`COc1cc2ncnc(Nc3ccc(F)c(Cl)c3)c2cc1NC(=O)/C=C/CN1CCCCC1` [dacomitinib]: the results for the IC50 in data set [6] (read-out: IC50 against SARS-CoV-2 in Calu-3 cells) and in data set [5] were 0.04 µM and 3.33 ± 0.06 µM, respectively.
Consider `CCCCCc1c2c(cc(O)c1C(=O)O)OC(=O)c1c(cc(OC)cc1C(=O)CCCC)O2` [lobaric acid], for which half-maximal inhibition in data set [5] (IC50) required 10 ± 1.11 µM.
As to `C=CC(=O)Nc1cccc(Oc2nc(Nc3ccc(N4CCN(C)CC4)cc3)nc3ccsc23)c1` [olmutinib], the IC50 in data set [2] was 9.76 µM; in data set [5] it was 0.54 ± 0.04 µM. Besides, the CC50 in data set [3] was 12.5 µM. Besides, the “cell toxicity in Calu-3 cells (in words)” value in data set [4] was “demonstrated cell toxicity”.
Regarding `O=C(c1ccc(OCCN2CCCCC2)cc1)c1c(-c2ccc(O)cc2)sc2cc(O)ccc12` [raloxifene], the “SI in Calu-3 cells” value in data set [6] was 2.7. Besides, the IC50 in [6] (read-out: IC50 in Calu-3 cells) is 9 µM; in [7], 42.8 ± 6.7 µM; in [1] (read-out: IC50 against SARS-CoV-2 in Vero cells) it was 3.9 µM; in data set [1] (read-out: IC50 in Vero, Vero cells), 5.9 µM; in data set [5] it was 3.28 ± 0.29 µM.
`CC1(C)CCC2=C(O1)c1ccccc1C(=O)C2=O` [β-lapachone] yielded an IC50 in data set [5] of 5.3 ± 0.29 µM.
`C[N+](C)(C)CCOP(=O)(O)OP(=O)([O-])OC[C@H]1O[C@@H](n2ccc(N)nc2=O)[C@H](O)[C@@H]1O` [citicoline] came in with an IC50 in data set [5] of 1.35 ± 0.27 µM.
As to `COc1cc(Nc2c(C#N)cnc3cc(OCCCN4CCN(C)CC4)c(OC)cc23)c(Cl)cc1Cl` [bosutinib], the “SI (anti-SARS-CoV-2 entry activity)” value in data set [8] is on record as 7.08. For the same compound, the EC50 in data set [8] (read-out: anti-SARS-CoV-2 entry activity EC50) was 2.45 µM. Also, the IC50 was found to be 5.26 µM in data set [2] and 4.23 ± 0.28 µM in [5]. In addition, the CC50 in [3] was found to be 6.06 µM. Besides, the “cell toxicity in Calu-3 cells (in words)” value in data set [4] is “demonstrated cell toxicity”.
Turning to `COc1ccc2nc3cc(Cl)ccc3c(Nc3cc(CN4CCCC4)c(O)c(CN4CCCC4)c3)c2n1` [pyronaridine tetraphosphate], the IC50 in [9] is 0.23 µM; in [10], 1.8 µM.

Values taken from PMC10275482 (ACS Omega, 2023).
